{
  "source": "patent EP1198477B1",
  "about": "“PROLACTIN-RELEASING PEPTIDE AND USE IN TREATING PAIN” (Oy Juvantia Pharma Ltd, priority 1999, dated 2001)",
  "test_system": "Rats",
  "assay": "Blood pressure measurements after i.v. injections",
  "format": "in vivo",
  "conditions": "in the same animals, dose not stated",
  "data": [
    {"smiles": "CNC[C@H](O)c1cccc(O)c1", "note": "[phenylephrine]", "values": [
      {"measurement": "arterial pressure", "value": "clear increase in pressure"}
    ]}
  ]
}
